Source: patent EP0517347A1, “New combinations for the treatment of Parkinsons disease, containing NMDA-antagonists” (SCHERING AKTIENGESELLSCHAFT, priority 1991, dated 1992)

Tests used:
[1] = system: unilateral Substantia nigralädierten Ratten; test: Induction of contralateral rotations in rats with unilateral 6-OHDA lesion of the substantia nigra (automated rotometer); format: in vivo, Wistar-Ratten
Experimental: Die erfindungsgemäße Wirkung wird am Beispiel des CPP dargestellt: Auslösung von kontralateralen Rotationen an unilateral Substantia nigralädierten Ratten. Männliche Wistar-Ratten wurden 8 Monate vor dem Experiment durch Injektion von 16 µg 6-Hydroxydopamin (6-OHDA) in die linke Substantia nigra lädiert. Die Messung der Rotationen erfolgte in automatisierten Rotometern. Die Tiere wurden in Plexiglas-Halbschalen (Durchmesser 40 cm) gesetzt und mechanisch mit einem Winkelschrittgeber verbunden. Die Bewegungen mit und entgegen dem Uhrzeigersinn wurden getrennt in 10-Minuten-Intervallen für 2 Stunden erfasst.
Die Ergebnisse dieser Versuche lassen sich wie folgt zusammenfassen: Die mit Lösungsmitteln behandelten Tiere zeigen kaum spontane Rotationen.

[2] = system: MPTP-behandelten Pinselohräffchen; test: Experimental Parkinson syndrome induced by the neurotoxin MPTP in marmosets; format: in vivo
Experimental: In gleicher Weise wurden die erfindungsgemäßen Verbindungen am Pinselohräffchen untersucht, bei denen durch das Neurotoxin MPTP ein experimentelles Parkinsonsyndrom erzeugt wurde.
Im gleichen Modell wurde CPP (0.1, 0.39, 1.56 mg/kg i.p.) mit den direkten Dopaminagonisten Apomorphin (0.05 mg/kg i.p. ) oder Lisurid (0.1 mg/kg i.p. ) geprüft (Abb. 3 und 4).

Row | Structure (SMILES) | durch L-Dopa induzierte Rotationen ([1]; CPP 0,025, 0,39, 1,56 and 6,25 mg/kg i.p. added to L-Dopa 25 mg/kg i.p. + Benserazid 100 mg/kg i.p., Abb. 1) | Zahl der Rotationen in 2 Stunden ([1]; highest dose of CPP (6,25 mg/kg i.p.) plus L-Dopa + Benserazid, compared with L-Dopa treatment, Abb. 1) | Wirkung von L-Dopa und Benserazid ([2]; CPP 0,1, 0,39, 1,56 mg/kg i.p. added to L-Dopa 20 mg/kg i.p. + Benserazid 20 mg/kg i.p., Abb. 2) | kombinierte Behandlung mit Apomorphin ([2]; CPP 0.1, 0.39, 1.56 mg/kg i.p. with Apomorphin 0.05 mg/kg i.p., analysis of variance and Tukey test, p < 0.0.1, Abb. 3 und 4) | kombinierte Behandlung mit Lisurid ([2]; CPP 0.1, 0.39, 1.56 mg/kg i.p. with Lisurid 0.1 mg/kg i.p., analysis of variance and Tukey test, p < 0.0.1, Abb. 3 und 4) | Rotationsbewegungen ([1]; L+Dopa 25 mg/kg i.p. and Benserazid 100 mg/kg i.p., without CPP, 6-OHDA-lesioned rats)
1 | O=C(O)C1CN(CCCP(=O)(O)O)CCN1 (racemic) [CPP, 3-((±)-2-carboxy-piperazin-4-yl)-propyl-1-phosphonsäure] | dosisabhängig verstärkt | signifikant von der L-Dopa Behandlung verschieden | dosisabhängig verstärkt | signifikantem Synergismus | signifikantem Synergismus | 
2 | N[C@@H](Cc1ccc(O)c(O)c1)C(=O)O [L+Dopa] |  |  |  |  |  | leichte Rotationsbewegungen
